pIC50: −log10 of the molar value.
The molecules below were run on CAMA-1 (assay: Antiproliferative activity against human progesterone receptor and HER2 deficient CAMA1 cells expressing estrogen receptor after 72 hrs by MTT assay). Details: CAMA-1, 72 h.
Assay type: functional, cell-based

`COc1ccc(Cc2nc(-c3cc(Br)c(O)c(Br)c3)cnc2Cl)cc1Br` and `CNCCOc1c(Br)cc(-c2c[nH]c(=O)c(Cc3ccc(OC)c(Br)c3)n2)cc1Br` cannot be ordered by pIC50: under 5.00 for the first, under 5.00 for the second.

Going from `CN(C)CCCOc1c(Br)cc(-c2c[nH]c(=O)c(Cc3ccccc3)n2)cc1Br` to `CNCCCOc1c(Br)cc(-c2c[nH]c(=O)c(Cc3ccccc3)n2)cc1Br`, the pIC50 falls from 5.15 to under 5.00. The first is the more potent here.

`COc1ccc(Cc2nc(-c3cc(Br)c(OCCN(C)C)c(Br)c3)c[nH]c2=O)cc1Br` and `COc1ccc(Cc2nc(-c3cc(Br)c(OCCCN(C)C)c(Br)c3)c[nH]c2=O)cc1Br` [Ma'edamine A] cannot be ordered by pIC50: under 5.00 for the first, under 5.00 for the second.

`COc1ccc(Cc2nc(-c3cc(Cl)c(OCCCN(C)C)c(Cl)c3)c[nH]c2=O)cc1Cl` and `COc1ccc(Cc2nc(-c3cc(Br)c(OCCCCN(C)C)c(Br)c3)c[nH]c2=O)cc1Br` cannot be ordered by pIC50: under 5.00 for the first, under 5.00 for the second.

First: CN(C)CCCOc1c(Br)cc(-c2c[nH]c(=O)c(Cc3c[nH]c4ccccc34)n2)cc1Br
Second: CNCCCOc1c(Br)cc(-c2c[nH]c(=O)c(Cc3c[nH]c4ccccc34)n2)cc1Br
The pIC50 of the first is lower: under 5.00 for the first, 5.24 for the second.

First: CC(C)c1nc(-c2cc(Br)c(OCCCN(C)C)c(Br)c2)c[nH]c1=O
Second: CN(C)CCCOc1c(Br)cc(-c2c[nH]c(=O)c(Cc3ccc(O)c(Br)c3)n2)cc1Br
The pIC50 of the first is lower: under 5.00 for the first, 5.18 for the second. The second is the more potent here.

`COc1ccc(Cc2nc(-c3cc(Br)c(OCCCN4CCOCC4)c(Br)c3)c[nH]c2=O)cc1Br` and `COc1ccc(Cc2nc(-c3cc(Br)c(OCCCCN4CCOCC4)c(Br)c3)c[nH]c2=O)cc1Br` cannot be ordered by pIC50: under 5.00 for the first, under 5.00 for the second.

`CCN(CC)CCCOc1c(Br)cc(-c2c[nH]c(=O)c(Cc3ccc(OC)c(Br)c3)n2)cc1Br` and `CNCCCOc1c(Br)cc(-c2c[nH]c(=O)c(Cc3ccc(OC)c(Br)c3)n2)cc1Br` [Ma'edamine B] are within 0.2 log units of each other in pIC50: 5.28 for the first, 5.24 for the second.

`COc1ccc(Cc2nc(-c3ccc(OCCCN4CCOCC4)cc3)c[nH]c2=O)cc1` and `COc1ccc(Cc2nc(-c3ccc(OCCCN(C)C)cc3)c[nH]c2=O)cc1` cannot be ordered by pIC50: under 5.00 for the first, under 5.00 for the second.

`COc1ccc(Cc2nc(-c3ccc(OCCCCN(C)C)cc3)c[nH]c2=O)cc1` and `CN(C)CCCOc1ccc(-c2c[nH]c(=O)c(Cc3c[nH]c4ccccc34)n2)cc1` cannot be ordered by pIC50: under 5.00 for the first, under 4.70 for the second.

`CNCCCOc1ccc(-c2c[nH]c(=O)c(Cc3c[nH]c4ccccc34)n2)cc1` and `O=c1[nH]cc(-c2ccccc2)nc1Cc1ccccc1` cannot be ordered by pIC50: under 4.70 for the first, under 5.00 for the second.

`CS(=O)(=O)CCNCc1ccc(-c2ccc3ncnc(Nc4ccc(OCc5cccc(F)c5)c(Cl)c4)c3c2)o1` [LAPATINIB] gave a pIC50 of under 5.00.

Each molecule was assayed on T47D (assay: Antiproliferative activity against human HER2 deficient T47D cells expressing estrogen receptor and progesterone receptor after 72 hrs by MTT assay). Details: not given.
Assay type: functional, cell-based

Compared with `COc1ccc(Cc2nc(-c3cc(Br)c(O)c(Br)c3)cnc2Cl)cc1Br`, `CNCCOc1c(Br)cc(-c2c[nH]c(=O)c(Cc3ccc(OC)c(Br)c3)n2)cc1Br` is higher in pIC50: under 5.00 for the first, 5.21 for the second.

Going from `CN(C)CCCOc1c(Br)cc(-c2c[nH]c(=O)c(Cc3ccccc3)n2)cc1Br` to `CNCCCOc1c(Br)cc(-c2c[nH]c(=O)c(Cc3ccccc3)n2)cc1Br`, the pIC50 falls from 5.20 to under 5.00.

First: COc1ccc(Cc2nc(-c3cc(Br)c(OCCN(C)C)c(Br)c3)c[nH]c2=O)cc1Br
Second: COc1ccc(Cc2nc(-c3cc(Br)c(OCCCN(C)C)c(Br)c3)c[nH]c2=O)cc1Br [Ma'edamine A]
The pIC50 of the first is higher: 5.25 for the first, under 5.00 for the second. The first is the more potent here.

`COc1ccc(Cc2nc(-c3cc(Cl)c(OCCCN(C)C)c(Cl)c3)c[nH]c2=O)cc1Cl` and `COc1ccc(Cc2nc(-c3cc(Br)c(OCCCCN(C)C)c(Br)c3)c[nH]c2=O)cc1Br` cannot be ordered by pIC50: under 5.00 for the first, under 5.00 for the second.

First: CN(C)CCCOc1c(Br)cc(-c2c[nH]c(=O)c(Cc3c[nH]c4ccccc34)n2)cc1Br
Second: CNCCCOc1c(Br)cc(-c2c[nH]c(=O)c(Cc3c[nH]c4ccccc34)n2)cc1Br
The pIC50 of the first is 0.20 log units lower: 5.20 for the first, 5.40 for the second. The second is the more potent here.

First: CC(C)c1nc(-c2cc(Br)c(OCCCN(C)C)c(Br)c2)c[nH]c1=O
Second: CN(C)CCCOc1c(Br)cc(-c2c[nH]c(=O)c(Cc3ccc(O)c(Br)c3)n2)cc1Br
The pIC50 of the first is lower: under 5.00 for the first, 5.32 for the second. The second is the more potent here.

`COc1ccc(Cc2nc(-c3cc(Br)c(OCCCN4CCOCC4)c(Br)c3)c[nH]c2=O)cc1Br` and `COc1ccc(Cc2nc(-c3cc(Br)c(OCCCCN4CCOCC4)c(Br)c3)c[nH]c2=O)cc1Br` cannot be ordered by pIC50: under 5.00 for the first, under 5.00 for the second.

Compared with `CCN(CC)CCCOc1c(Br)cc(-c2c[nH]c(=O)c(Cc3ccc(OC)c(Br)c3)n2)cc1Br`, `CNCCCOc1c(Br)cc(-c2c[nH]c(=O)c(Cc3ccc(OC)c(Br)c3)n2)cc1Br` [Ma'edamine B] is higher in pIC50: under 5.00 for the first, 5.22 for the second. The second is the more potent here.

`COc1ccc(Cc2nc(-c3ccc(OCCCN4CCOCC4)cc3)c[nH]c2=O)cc1` and `COc1ccc(Cc2nc(-c3ccc(OCCCN(C)C)cc3)c[nH]c2=O)cc1` cannot be ordered by pIC50: under 5.00 for the first, under 5.00 for the second.

`COc1ccc(Cc2nc(-c3ccc(OCCCCN(C)C)cc3)c[nH]c2=O)cc1` and `O=c1[nH]cc(-c2ccccc2)nc1Cc1ccccc1` cannot be ordered by pIC50: under 5.00 for the first, under 5.00 for the second.

Molecule `CS(=O)(=O)CCNCc1ccc(-c2ccc3ncnc(Nc4ccc(OCc5cccc(F)c5)c(Cl)c4)c3c2)o1` [LAPATINIB] has a pIC50 of under 5.00.

The molecules below were run on SK-BR-3 (assay: Antiproliferative activity against human estrogen receptor and progesterone receptor deficient SKBR3 cells expressing HER2 after 72 hrs by MTT assay). Details: SK-BR-3, 72 h.
Assay type: functional, cell-based

Going from `COc1ccc(Cc2nc(-c3cc(Br)c(O)c(Br)c3)cnc2Cl)cc1Br` to `CNCCOc1c(Br)cc(-c2c[nH]c(=O)c(Cc3ccc(OC)c(Br)c3)n2)cc1Br`, the pIC50 rises from under 5.00 to 5.09. The second is the more potent here.

Going from `CN(C)CCCOc1c(Br)cc(-c2c[nH]c(=O)c(Cc3ccccc3)n2)cc1Br` to `CNCCCOc1c(Br)cc(-c2c[nH]c(=O)c(Cc3ccccc3)n2)cc1Br`, the pIC50 falls from 5.26 to under 5.00.

First: COc1ccc(Cc2nc(-c3cc(Br)c(OCCN(C)C)c(Br)c3)c[nH]c2=O)cc1Br
Second: COc1ccc(Cc2nc(-c3cc(Br)c(OCCCN(C)C)c(Br)c3)c[nH]c2=O)cc1Br [Ma'edamine A]
The pIC50 of the first is higher: 5.24 for the first, under 5.00 for the second. The first is the more potent here.

`COc1ccc(Cc2nc(-c3cc(Cl)c(OCCCN(C)C)c(Cl)c3)c[nH]c2=O)cc1Cl` and `COc1ccc(Cc2nc(-c3cc(Br)c(OCCCCN(C)C)c(Br)c3)c[nH]c2=O)cc1Br` cannot be ordered by pIC50: under 5.00 for the first, under 5.00 for the second.

Going from `CN(C)CCCOc1c(Br)cc(-c2c[nH]c(=O)c(Cc3c[nH]c4ccccc34)n2)cc1Br` to `CNCCCOc1c(Br)cc(-c2c[nH]c(=O)c(Cc3c[nH]c4ccccc34)n2)cc1Br`, the pIC50 rises from 5.15 to 5.36 (0.21 log units). The second is the more potent here.

Going from `CC(C)c1nc(-c2cc(Br)c(OCCCN(C)C)c(Br)c2)c[nH]c1=O` to `CN(C)CCCOc1c(Br)cc(-c2c[nH]c(=O)c(Cc3ccc(O)c(Br)c3)n2)cc1Br`, the pIC50 rises from under 5.00 to 5.25.

`COc1ccc(Cc2nc(-c3cc(Br)c(OCCCN4CCOCC4)c(Br)c3)c[nH]c2=O)cc1Br` and `COc1ccc(Cc2nc(-c3cc(Br)c(OCCCCN4CCOCC4)c(Br)c3)c[nH]c2=O)cc1Br` cannot be ordered by pIC50: under 5.00 for the first, under 5.00 for the second.

`CCN(CC)CCCOc1c(Br)cc(-c2c[nH]c(=O)c(Cc3ccc(OC)c(Br)c3)n2)cc1Br` and `CNCCCOc1c(Br)cc(-c2c[nH]c(=O)c(Cc3ccc(OC)c(Br)c3)n2)cc1Br` [Ma'edamine B] are within 0.2 log units of each other in pIC50: 5.22 for the first, 5.40 for the second.

`COc1ccc(Cc2nc(-c3ccc(OCCCN4CCOCC4)cc3)c[nH]c2=O)cc1` and `COc1ccc(Cc2nc(-c3ccc(OCCCN(C)C)cc3)c[nH]c2=O)cc1` cannot be ordered by pIC50: under 5.00 for the first, under 5.00 for the second.

`COc1ccc(Cc2nc(-c3ccc(OCCCCN(C)C)cc3)c[nH]c2=O)cc1` and `CN(C)CCCOc1ccc(-c2c[nH]c(=O)c(Cc3c[nH]c4ccccc34)n2)cc1` cannot be ordered by pIC50: under 5.00 for the first, under 4.70 for the second.

`CNCCCOc1ccc(-c2c[nH]c(=O)c(Cc3c[nH]c4ccccc34)n2)cc1` and `O=c1[nH]cc(-c2ccccc2)nc1Cc1ccccc1` cannot be ordered by pIC50: under 4.70 for the first, under 5.00 for the second.

`CS(=O)(=O)CCNCc1ccc(-c2ccc3ncnc(Nc4ccc(OCc5cccc(F)c5)c(Cl)c4)c3c2)o1` [LAPATINIB] was tested, and the pIC50 was 5.30.
